What was measured:
AR-FL and AR-V7 mRNA = test: mRNA levels of AR-FL and AR-V7 (quantitative PCR); format: cell-based, human
DU145 = DU145 cell proliferation; format: cell-based, human; conditions: AR-negative cell line; 1 μM
Experimental: The human prostate cancer cell line, 22Rv1 has been reported to express a high level of AR-V7. Thus, 22Rv1 was seeded at 50,000 cells/well on a 24-well plate in quadruplicates and treated with test compound in concentrations ranging up to 20 μM for four days. Standard culture media was RPMI-1640 supplemented with 10% fetal bovine serum. The test compound initially was dissolved in DMSO at 50 mM. This stock solution was then diluted as needed for the indicated concentrations. At the end of the four-day period, cells were harvested using 1% trypsin and counted using an automated cell counter.
Cell Culture. Human CaP cell lines, LNCaP, 22Rv1, VCaP, PC3, and DU145 are obtained from the American Type Culture Collection (ATCC) and maintained in the standard culture media: RPMI-1640 supplemented with 10% fetal bovine serum (FBS). LNCaP, 22Rv1, and VCaP are androgen-responsive cell lines, while PC3 and DU145 are not. To establish SAT resistant CaP cell lines, LNCaP, 22Rv1, and VCaP are treated continuously with 10-50 μM abiraterone, apalutamide, darolutamide, or enzalutamide. […] Mycoplasma contamination is also assessed using a PCR based detection system.

22Rv1 = test: LDH assay for non-specific cytotoxicity in 22Rv1; format: cell-based, human; conditions: 22Rv1, up to 20 μM, six days (0.01, 0.1, 1, 10 and 20 μM tested)
Experimental: Apoptosis Assay. An apoptosis assay is carried out using the Thermo Fisher ApoDETECT Annexin V-FITC kit following the protocol recommended by the vendor. Briefly, after treatment with 1 μM of Test Compound for 3 to 24 hours, cells are fixed with 80% ethanol and washed with PBS three times. Then, fixed cells are incubated with Annexin V-FITC in PBS solution for 30 minutes at room temperature. After washing three times with PBS, cells are treated with 300 nM DAPI in PBS for 5 minutes at room temperature. Finally, after washing three times with PBS, mounting solution is added and the cells are visualized using immunofluorescence microscopy. Next, a TUNEL assay is performed using Promega DeadEnd Fluorometric TUNEL system. After treatment with Test Compound and fixation as described above in the Annexin-V experiment, 100 μl of equilibration buffer is incubated for 10 min. Then, 50 μl of TdT reaction mix is added and incubated for 60 min at 37° C. in a humidified chamber. Finally, stop solution is added and samples are mounted on slides using mounting medium. To assess non-specific cytotoxicity, an LDH assay kit is used.

[1] = tested on: Enzalutamide-resistant CaP tumor xenografts; test: Enzalutamide-resistant CaP tumor xenograft, systemic (IP or oral) dosing; format: in vivo, mice; conditions: four weeks, with enzalutamide, control 2200 mm^3
Experimental: In Vivo Study. To explore the therapeutic potential of Test Compound, 22Rv1, 22Rv1-Enz^R, VCaP, and VCaP-Enz^R are injected into nu/nu immunodeficient mice. When the resulting tumors reached an average size of 3 mm in diameter, all animals are surgically castrated via bilateral orchiectomy and divided into four groups of five mice each. For anesthesia, 3% isoflurane gas inhalation is used. Tumor size was measured using calipers and tumor volume was calculated using the formula: tumor volume=length×width^2[…].
Mice are then treated daily with Test Compound with or without enzalutamide via the indicated route (intratumoral, intraperitoneal, or oral) for five to six weeks. At the end of the study, all animals are sacrificed and tumors are harvested and analyzed. Statistical significance is calculated using the Student's t-test for paired comparisons of experimental groups and, where appropriate, by Wilcoxon rank sum test, and by 2-way ANOVA. In vitro experiments are repeated a minimum of three times.
To test whether the Compound is active systemically, an identical study is carried out as above except for delivering the Compound intraperitoneally (IP) or orally for four weeks. Enzalutamide-resistant CaP tumor xenografts are established in twelve mice and three each are assigned to the following four groups: control IP (vehicle), control oral (vehicle), 8.3 mg/kg IP, and 8.3 mg/kg oral. […]

Cc1ncsc1-c1ccc([C@H](C)NC(=O)[C@@H]2C[C@@H](O)CN2C(=O)[C@@H](NC(=O)CCCCNC(=O)COc2c(-c3csc(N4CCOCC4)n3)ccc(F)c2F)C(C)(C)C)cc1 [Example 16, (2S,4R)-1-((S)-2-(5-(2-(2,3-difluoro-6-(2-morpholinothiazol-4-yl)phenoxy)acetamido)pentanamido)-3,3-dimethylbutanoyl)-4-hydroxy-N-((S)-1-(4-(4-methylthiazol-5-yl)phenyl)ethyl)pyrrolidine-2-carboxamide]
effect on mRNA levels of AR-FL and AR-V7 (AR-FL and AR-V7 mRNA): no major effect | effect on DU145 cells (DU145): not affected | non-specific cytotoxic effect, lactate dehydrogenase (LDH) assay (22Rv1): no non-specific cytotoxic effect | tumor size ([1]; 8.3 mg/kg IP): approximately 1000 mm^3 | tumor size ([1]; 8.3 mg/kg oral (PO)): approximately 700 mm^3

From patent US20230132823A1, “BI-FUNCTIONAL COMPOUNDS AND METHODS FOR TARGETED UBIQUITINATION OF ANDROGEN RECEPTOR” (MONTELINO THERAPEUTICS, INC., priority 2020, published 2023)
